According to US4719200A, “Amino acid derivatives and antihypertensive drugs containing the same” (Ajinomoto Co., Inc., priority 1984, dated 1988):
Square brackets hold non-standard residues; d marks the D form. Peptide text beside a SMILES is read from it. * marks the point of attachment. pGlu = O=C1CC[C@@H](C(=O)O)N1; Cbz = O=C(OCc1ccccc1)*; PhAc = O=C(Cc1ccccc1)*; Boc = CC(C)(C)OC(=O)*; Propionyl = CCC(=O)*; Bz = O=C(c1ccccc1)*

System: spontaneously hypertensive rates (SHR rats)
Assay: Measurement of change in blood pressure (systolic, indirect, conscious rats) after one oral dose
Format: in vivo, rat
Settings: for Δ Blood Pressure (systolic): lowest value minus value before administration; for Systolic Blood Pressure, Lowest Value: after administration
Method: The antihypertensive activities of the amino acid derivatives as prepared above were determined.
As subject animals, there were used 5 spontaneously hypertensive rates (SHR rats) which had been sufficiently trained and confirmed to be hypertensive (mode, the body weight of 400 g) per a sample.
As an instrument for measuring the blood pressure there was used Programmed Electro-Sphygmomanometer PE-300 (Narco Co., U.S.A.), and the blood pressure was indirectly measured on conscious rats.
An aqueous solution of a sample (0.05 m mole/kg) was once force-fed into the stomach by means of a […] probe. As a control, the water as deionized was fed to the same animals as above.

[1] = SHR rats, single force-feeding into the stomach, 0.05 m mole/kg
[2] = SHR rats, 5 per sample, before single force-feeding into the stomach of 0.05 m mole/kg aqueous solution
[3] = second table (Examples 25-43), before administration

| Structure (SMILES) | Systolic Blood Pressure, Lowest value after administration [1] | Δ Blood Pressure (systolic) [1] | Systolic Blood Pressure, Value Before Administration [2] | Hours after administration (of lowest systolic blood pressure value) [1] | Hrs. After Admin. (of lowest systolic blood pressure value) (second table (Examples 25-43)) | Systolic Blood Pressure, Lowest Value (second table (Examples 25-43)) | Systolic Blood Pressure, Value Before Administration [3] | Δ Blood Pressure (systolic) (second table (Examples 25-43)) |
| --- | --- | --- | --- | --- | --- | --- | --- | --- |
| CCOC(=O)N[C@@H](C)C(=O)N1CCC[C@H]1C(=O)N1CCC[C@H]1C(=O)O [Example 1, N-ethoxycarbonyl-L-alanyl-L-prolyl-L-proline] | 155 mm Hg | -38 mm Hg |  |  |  |  |  |  |
| CC(=O)N[C@@H](C)C(=O)N1CCC[C@H]1C(=O)N1CCC[C@H]1C(=O)O [Example 3, N-acetyl-L-alanyl-L-prolyl-L-proline] (Ac-Ala-Pro-Pro-OH) | 160 mm Hg | -41 mm Hg |  |  |  |  |  |  |
| CCC(=O)N[C@@H](C)C(=O)N1CCC[C@H]1C(=O)N1CCC[C@H]1C(=O)O [Example 4, N-propionyl-L-alanyl-L-prolyl-L-proline] (Propionyl-Ala-Pro-Pro-OH) | 173 mm Hg | -24 mm Hg |  |  |  |  |  |  |
| C[C@H](NC(=O)c1ccccn1)C(=O)N1CCC[C@H]1C(=O)N1CCC[C@H]1C(=O)O [Example 5, N-picolinoyl-L-alanyl-L-prolyl-L-proline] | 175 mm Hg | -22 mm Hg |  |  |  |  |  |  |
| C[C@H](NC(=O)c1cccs1)C(=O)N1CCC[C@H]1C(=O)N1CCC[C@H]1C(=O)O [Example 6, N-(2-thenoyl)-L-alanyl-L-prolyl-L-proline] | 182 mm Hg | -20 mm Hg |  |  |  |  |  |  |
| C[C@H](NC(=O)c1ccco1)C(=O)N1CCC[C@H]1C(=O)N1CCC[C@H]1C(=O)O [Example 7, N-(2-furoyl)-L-alanyl-L-prolyl-L-proline] | 177 mm Hg | -28 mm Hg |  |  |  |  |  |  |
| C[C@@H](C(=O)N1CCC[C@H]1C(=O)N1CCC[C@H]1C(=O)O)N1C(=O)c2ccccc2C1=O [Example 8, N-phthaloyl-L-alanyl-L prolyl-L-proline] | 207 mm Hg | -18 mm Hg | 225 mm Hg | 4 h |  |  |  |  |
| CCS(=O)(=O)N[C@@H](C)C(=O)N1CCC[C@H]1C(=O)N1CCC[C@H]1C(=O)O [Example 12, N-ethanesulfonyl-L-alanyl-L prolyl-L-proline] | 159 mm Hg | -45 mm Hg | 204 mm Hg | 24 h |  |  |  |  |
| C[C@H](NC(=O)c1ccccc1)C(=O)N1CCC[C@H]1C(=O)N1CCC[C@H]1C(=O)O [Example 13, N-benzoyl-L-alanyl-L-prolyl-L-proline] (Bz-Ala-Pro-Pro-OH) | 177 mm Hg | -43 mm Hg |  |  |  |  |  |  |
| C[C@H](NC(=O)Cc1ccccc1)C(=O)N1CCC[C@H]1C(=O)N1CCC[C@H]1C(=O)O [Example 14, N-phenylacetyl-L-alanyl-L-prolyl-L-proline] (PhAc-Ala-Pro-Pro-OH) | 175 mm Hg | -24 mm Hg |  |  |  |  |  |  |
| C[C@H](NC(=O)OCc1ccccc1)C(=O)N1CCC[C@H]1C(=O)N1CCC[C@H]1C(=O)O.NC(N)=NCCC[C@H](N)C(=O)O [Example 15, N-benzyloxycarbonyl-L-alanly-L-prolyl-L-proline L-arginine salt] (Cbz-Ala-Pro-Pro-OH) | 172 mm Hg | -33 mm Hg | 205 mm Hg | 4 h |  |  |  |  |
| C[C@H](NC(=O)OC(C)(C)C)C(=O)N1CCC[C@H]1C(=O)N1CCC[C@H]1C(=O)O [Example 16, N-t-butyloxycarbonyl-L-alanyl-L-prolyl-L-proline] (Boc-Ala-Pro-Pro-OH) | 173 mm Hg | -21 mm Hg |  |  |  |  |  |  |
| C[C@H](NC(=O)[C@@H]1CCC(=O)N1)C(=O)N1CCC[C@H]1C(=O)N1CCC[C@H]1C(=O)O [Example 21, L-pyroglutamyl-L-alanyl-L-prolyl-L-proline] ([pGlu]APP-OH) | 190 mm Hg | -29 mm Hg |  |  |  |  |  |  |
| CC[C@H](C)[C@H](NC(=O)c1ccccc1)C(=O)N1CCC[C@H]1C(=O)N1CCC[C@H]1C(=O)O [Example 25, N--benzoyl-L-isoleucyl-L-prolyl-L-proline] (Bz-Ile-Pro-Pro-OH) |  |  |  |  | 8 h | 201 | 229 | -28 |
| O=C(N[C@@H](Cc1ccccc1)C(=O)N1CCC[C@H]1C(=O)N1CCC[C@H]1C(=O)O)c1ccccc1.[Na] [Example 26, N--Benzoyl-L-phenylalanyl-L-prolyl-L-proline sodium salt] (Bz-Phe-Pro-Pro-OH) |  |  |  |  | 8 h | 194 | 228 | -34 |
| O=C(NCC(=O)N1CCC[C@H]1C(=O)N1CCC[C@H]1C(=O)O)c1ccccc1 [Example 27, N--benzoyl-glycyl-L-prolyl-L-proline] (Bz-Gly-Pro-Pro-OH) |  |  |  |  | 8 h | 209 | 232 | -23 |
| O=C(O)CC[C@H](NC(=O)c1ccccc1)C(=O)N1CCC[C@H]1C(=O)N1CCC[C@H]1C(=O)O [Example 28, N--benzoyl-L-glutamyl-L-prolyl-L-proline] (Bz-Glu-Pro-Pro-OH) |  |  |  |  | 8 h | 196 | 235 | -39 |
| O=C(O)[C@@H]1CCCN1C(=O)[C@@H]1CCCN1C(=O)[C@H](CO)NCc1ccccc1 [Example 29, N--benzyl-L-seryl-L-prolyl-L-proline] |  |  |  |  | 8 h | 192 | 214 | -22 |
| CCOC(=O)N[C@H](C(=O)N1CCC[C@H]1C(=O)N1CCC[C@H]1C(=O)O)[C@@H](C)CC.[Na] [Example 30, N--ethoxycarbonyl-L-isoleucyl-L-prolyl-L-proline sodium salt] |  |  |  |  | 4 h | 208 | 224 | -16 |
| CCOC(=O)N[C@@H](Cc1ccccc1)C(=O)N1CCC[C@H]1C(=O)N1CCC[C@H]1C(=O)O.[Na] [Example 31, N--ethoxycarbonyl-L-phenylalanyl-L-prolyl-L-proline sodium salt] |  |  |  |  | 24 h | 199 | 216 | -17 |
| CCOC(=O)NCC(=O)N1CCC[C@H]1C(=O)N1CCC[C@H]1C(=O)O.[Na] [Example 32, N--ethoxycarbonyl-glycyl-L-prolyl-L-proline sodium salt] |  |  |  |  | 8 h | 193 | 215 | -22 |
